Data as given in patent US20240207159A1, “SKIN PENETRATION IMPROVER” (KANEKA CORPORATION, priority 2021, published 2024).
Each block holds one compound with its values, some of them ahead of it.

Assays:
Assay type in all cases: in vitro ADME, human
[1] = Transdermal absorption test using cosmetics component (Franz diffusion cell, tape stripping, HPLC); conditions: for Penetration amount into epidermis/dermis (%) / Penetration amount into stratum corneum (%) / Wiping + first layer (%): 2 mg/cm^2, 6 hours; for Penetration amount into epidermis/dermis (%) / Penetration amount into stratum corneum (%) / Wiping + first layer (%) / Passing amount (%): ratio to 100 as total retrieved amount; for Passing amount (%): receptor liquid, 6 hours; for skin penetration property into the skin: combination of surfactin and a phospholipid in comparison with the aqueous solution
Description: The skin penetration properties of niacinamide and arbutin, which are often mixed in cosmetics as active ingredients, were evaluated by a similar test to Example 1. A circle human skin sample having a thickness of about 700 μm was attached to a test cell of an In vitro transdermal penetration test device (“TransView C12” manufactured by CosMED). The test cell is an open system Franz diffusion cell having an effective diameter of 2.0 cm, an area of 3.14 cm- and a receptor liquid volume of 2.4 mL. An electrical resistance value was measured to confirm that there were not any problems with the sample. Then, the test cell was filled with a phosphate buffer solution of pH 7.0 as a receptor liquid. The phosphate buffer solution of pH 7.0 containing 2 mass % surfactin sodium salt (SF), 1 mass % natural lecithin and 5 mass % active ingredient was applied to the skin sample at a rate of 2 mg/cm^2, and the skin sample was installed at the test device of which temperature was maintained at 32° C. to start the test. A phosphate buffer solution containing 5 mass % active ingredient was concurrently subjected to the test as control.
(§1) The skin sample was taken out of the test cell 6 hours after the start of the test, and the surface was wiped using cotton. Then, the first round of tape stripping, hereinafter referred to as “TS”, was conducted using a dedicated tape, hereinafter referred to as “tape”. Specifically, the tape was attached to the skin sample and then peeled. A mixed solvent (15 mL) of ethanol:water=1:1 by v/v was added thereto, and ultrasonic wave was applied to the mixture for 1 hour for extraction. The obtained liquid was retrieved, and the above-described mixed solvent was added thereto to adjust the total amount to 20 mL as an analytic sample of “wiping+first layer”.
(§2) Then, the second or later round of TS were conducted. The number of the total times of TS was 15 at a maximum, and the number of times was adjusted depending on the condition of the skin sample surface. The tapes of second or later round were combined, and the extraction using aqueous ethanol and the total amount adjustment were conducted in a similar condition to the above to prepare an analytic sample of “penetration amount into stratum corneum”.
(§3) In addition, the remaining skin sample was finely cut and divided into two tubes for crushing. Water (0.5 mL) was added into each tube, and the skin was crushed using a crushing machine for 20 minutes. The liquid containing the crushed skin was retrieved from two tubes into one centrifuge test. Then, ethanol (12 mL) was added thereto, and the mixture was efficiently stirred and centrifuged to obtain a supernatant. Water was added to the obtained supernatant to adjust the total amount to 20 mL to prepare an analytic sample of “penetration amount into epidermis/dermis”.
(§4) The receptor liquid was also retrieved, and water was added thereto to adjust the total amount to 20 mL to prepare an analytic sample of “passing amount”. The amounts of each active ingredient in each obtained solution were measured by HPLC.
The amounts of the active ingredients retrieved from each sample of the above-described “wiping+first layer”, “penetration amount into stratum corneum”, “penetration amount into epidermis/dermis” are shown in Table 1 as ratios to 100 as the total amount retrieved from 4 samples.

[2] = Transdermal absorption test of water-soluble fluorescent dye (Franz diffusion cell, fluorescence microscopy of frozen section); conditions: 6 hours
Description: A circle human skin sample having a thickness of about 700 μm was attached to a test cell of an In vitro transdermal penetration test device (“TransView C12” manufactured by CosMED). The test cell was an open system Franz diffusion cell having an effective diameter of 1.7 cm, an area of 2.27 cm^2 and a receptor liquid volume of 5.75 mL. An electrical resistance value was measured to confirm that there was not any problems with the sample. Then, the test cell was filled with a phosphate buffer solution of pH 7.0 as a receptor liquid. The phosphate buffer solution of pH 7.01 (500 μL) containing 1.5 mass % surfactin sodium salt (SF), 1 mass % phospholipid (DMPC: 1,2-dimyristoyl-sn-glycero-3-phosphocholine) and 10 mM water-soluble fluorescent dye (calcein) was applied to the skin sample, and the skin sample was installed at the test device of which temperature was maintained at 32° ° C. to start the test.
In addition, similar tests were conducted for comparison using a PBS solution of pH 7.09 containing 10 mM water-soluble fluorescent dye, a PBS solution of pH 6.99 containing 10 mM water-soluble fluorescent dye+1.5 mass % SF, and a PBS solution of pH 7.08 containing 10 mM water-soluble fluorescent dye+1 mass % phospholipid.
The skin sample was cut 6 hours after the start of the test, embedded in O. C. T. Compound, cooled using cooled acetone to be frozen, and sliced to prepare a frozen section. The cut surface was observed using a fluorescence microscope. Separately, the used human skin sample was dyed using hematoxylin-eosin and observed under magnification.
The result of the human skin sample is shown in FIG. 1, the result of the 10 mM water-soluble fluorescent dye PBS solution is shown in FIG. 2A, the result of the 10 mM water-soluble fluorescent dye+1.5 mass % SF PBS solution is shown in FIG. 2B, the result of the 10 mM water-soluble fluorescent dye+1 mass % phospholipid PBS solution is shown in FIG. 2C, and the result of the 10 mM water-soluble fluorescent dye+1 mass % phospholipid+1.5 mass % SF PBS solution is shown in FIG. 2D.

[3] = Effect of concentrations of phospholipid and surfactin on penetration of active ingredient (transdermal absorption test); conditions: 5 mass % niacinamide
Description: A circle human skin sample having a thickness of about 700 μm was attached to a test cell of an In vitro transdermal penetration test device (“TransView C12” manufactured by CosMED). The test cell is an open system Franz diffusion cell having an effective diameter of 2.0 cm, an area of 3.14 cm- and a receptor liquid volume of 2.4 mL. An electrical resistance value was measured to confirm that there were not any problems with the sample. Then, the test cell was filled with a phosphate buffer solution of pH 7.0 as a receptor liquid. The phosphate buffer solution of pH 7.0 containing 2 mass % surfactin sodium salt (SF), 1 mass % natural lecithin and 5 mass % active ingredient was applied to the skin sample at a rate of 2 mg/cm^2, and the skin sample was installed at the test device of which temperature was maintained at 32° C. to start the test.
as §1, §2, §3, §4
The condition of Example 2 was used as a benchmark of the concentrations of a phospholipid and surfactin in the samples applied to the skin, and the concentration, the ½ concentration thereof and the 1/10 concentration thereof were tested. All of the concentrations of niacinamide in the samples were adjusted to 5 mass %. The ratio of the active ingredient amounts in each sample to 100 of the total retrieved amount are shown.

[4] = Control: phosphate buffer solution containing 5 mass % active ingredient, 32 °C
[5] = Control: phosphate buffer solution containing 5 mass % active ingredient
[6] = Example: 2 mass % SF + 1 mass % natural lecithin + 5 mass % active ingredient, phosphate buffer pH 7.0
[7] = Example: 2 mass % surfactin sodium salt (SF) + 1 mass % natural lecithin + 5 mass % active ingredient, phosphate buffer pH 7.0
[8] = 1/10 conc. of phospholipid and surfactin of Example 2
[9] = Control, ratio to 100 of total retrieved amount
[10] = Example: phospholipid and surfactin at the concentration of Example 2
[11] = ½ conc. of phospholipid and surfactin of Example 2

Penetration amount into epidermis/dermis (%) [1, 4]: 0%
Penetration amount into stratum corneum (%) [1, 4]: 5%
Wiping + first layer (%) [1, 4]: 95%
Passing amount (%) [1, 5]: 0%
Penetration amount into epidermis/dermis (%) [1, 6]: 23%
Penetration amount into stratum corneum (%) [1, 6]: 25%
Passing amount (%) [1, 6]: 0%
Wiping + first layer (%) [1, 7]: 52%
skin penetration property into the skin [1]: remarkably improved
Structure (SMILES): OC[C@H]1O[C@@H](Oc2ccc(O)cc2)[C@H](O)[C@@H](O)[C@@H]1O [Arbutin, arbutin]

Structure (SMILES): O=C(O)CN(CC(=O)O)Cc1cc2c(cc1O)Oc1cc(O)c(CN(CC(=O)O)CC(=O)O)cc1C21OC(=O)c2ccccc21 [water-soluble fluorescent dye, calcein]
skin penetration of the water-soluble fluorescent dye (fluorescence microscope, cut surface) ([2]; PBS solution pH 6.99, 10 mM dye + 1.5 mass % SF (surfactin sodium salt), FIG. 2B): reached deeper epidermal tissue than the stratum corneum but mainly remained in the stratum corneum
skin penetration of the water-soluble fluorescent dye (fluorescence microscope, cut surface) ([2]; PBS solution pH 7.08, 10 mM dye + 1 mass % phospholipid (DMPC), FIG. 2C): reached deeper epidermal tissue than the stratum corneum but mainly remained in the stratum corneum
skin penetration of the water-soluble fluorescent dye (fluorescence microscope, cut surface) ([2]; PBS solution pH 7.09, 10 mM dye only, 32 °C, FIG. 2A): remained on the surface and could not infiltrate the deeper area than the stratum corneum
skin penetration of the water-soluble fluorescent dye (fluorescence microscope, cut surface) ([2]; phosphate buffer pH 7.01, 10 mM dye + 1 mass % phospholipid (DMPC) + 1.5 mass % SF, FIG. 2D): clearly infiltrated the epidermal tissue and also reached the dermis

Penetration amount into epidermis/dermis (%) [1, 4]: 5%
Penetration amount into stratum corneum (%) [1, 4]: 7%
Wiping + first layer (%) [1, 4]: 89%
Passing amount (%) [1, 5]: 0%
Penetration amount into epidermis/dermis (%) [1, 6]: 37%
Penetration amount into stratum corneum (%) [1, 6]: 39%
Passing amount (%) [1, 6]: 0%
Wiping + first layer (%) [1, 7]: 24%
skin penetration property into the skin [1]: remarkably improved
Passing amount (%) [3, 8]: 15%
Penetration amount into epidermis/dermis (%) [3, 8]: 18%
Penetration amount into stratum corneum (%) [3, 8]: 26%
Wiping + first layer (%) [3, 8]: 41%
Passing amount (%) [3, 9]: 15%
Penetration amount into epidermis/dermis (%) [3, 9]: 8%
Penetration amount into stratum corneum (%) [3, 9]: 11%
Wiping + first layer (%) [3, 9]: 65%
Passing amount (%) [3, 10]: 39%
Penetration amount into epidermis/dermis (%) [3, 10]: 18%
Penetration amount into stratum corneum (%) [3, 10]: 23%
Wiping + first layer (%) [3, 10]: 19%
Passing amount (%) [3, 11]: 15%
Penetration amount into epidermis/dermis (%) [3, 11]: 18%
Penetration amount into stratum corneum (%) [3, 11]: 23%
Wiping + first layer (%) [3, 11]: 44%
Structure (SMILES): NC(=O)c1cccnc1 [Niacinamide, niacinamide]
